# Test results from patent publication US7589201B2, “Derivatives of 1,4-diazabicyclo[3.2.1]octanecarboxamide, preparation method thereof and use of same in therapeutics” (Sanofi-Aventis, priority 2004, dated 2009).
# Where a name gives a salt, the structure may show the parent alone.
# What was measured:
# [1] = target: nicotinic receptors containing the α4β2 subunit (Rattus norvegicus, UniProt P09483+P12390); test: [3H]-cytisine binding to rat brain membranes, affinity for α4β2 nicotinic receptors; conditions: inhibition of specific binding of 1 nM [3H]-cytisine, rat whole brain membranes
# nicotinic receptors containing the α4β2 subunit, sequence (P09483 31-630): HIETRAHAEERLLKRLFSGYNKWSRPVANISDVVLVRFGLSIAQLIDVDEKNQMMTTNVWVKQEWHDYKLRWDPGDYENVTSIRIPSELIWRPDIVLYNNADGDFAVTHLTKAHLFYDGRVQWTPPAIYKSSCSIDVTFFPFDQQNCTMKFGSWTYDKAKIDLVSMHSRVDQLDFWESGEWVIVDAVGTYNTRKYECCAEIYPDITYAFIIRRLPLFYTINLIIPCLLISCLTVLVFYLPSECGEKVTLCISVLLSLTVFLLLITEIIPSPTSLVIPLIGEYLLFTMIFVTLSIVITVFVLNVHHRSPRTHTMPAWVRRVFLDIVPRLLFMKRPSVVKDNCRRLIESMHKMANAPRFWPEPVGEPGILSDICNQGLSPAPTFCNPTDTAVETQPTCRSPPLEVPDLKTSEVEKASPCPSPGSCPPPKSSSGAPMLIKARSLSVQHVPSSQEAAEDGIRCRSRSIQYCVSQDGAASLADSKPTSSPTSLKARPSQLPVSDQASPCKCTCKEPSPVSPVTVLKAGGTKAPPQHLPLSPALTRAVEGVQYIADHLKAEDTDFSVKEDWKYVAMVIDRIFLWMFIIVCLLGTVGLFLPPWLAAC
# nicotinic receptors containing the α4β2 subunit, sequence (P12390 25-500): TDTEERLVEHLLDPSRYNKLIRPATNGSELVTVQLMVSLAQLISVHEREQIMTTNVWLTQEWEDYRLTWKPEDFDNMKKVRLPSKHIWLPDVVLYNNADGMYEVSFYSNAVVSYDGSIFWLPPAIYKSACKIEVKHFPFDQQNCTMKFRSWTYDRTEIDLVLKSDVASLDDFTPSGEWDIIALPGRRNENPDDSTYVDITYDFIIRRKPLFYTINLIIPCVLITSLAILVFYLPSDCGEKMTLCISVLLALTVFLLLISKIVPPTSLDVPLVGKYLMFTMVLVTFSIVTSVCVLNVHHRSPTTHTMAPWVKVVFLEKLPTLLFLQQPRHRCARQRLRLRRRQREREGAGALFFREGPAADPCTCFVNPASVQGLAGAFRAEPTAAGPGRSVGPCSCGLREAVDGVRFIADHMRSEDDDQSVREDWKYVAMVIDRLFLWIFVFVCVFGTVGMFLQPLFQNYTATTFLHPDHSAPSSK
# Procedure: For instance, they were studied with regard to their affinity for nicotinic receptors containing the α4β2 subunit in accordance with the methods described by Anderson and Arneric in Eur. J. Pharmacol. 1994, 253, 261 and by Hall et al. in Brain Res. 1993, 600, 127. Male Sprague Dawley rats weighing 150 to 200 g are decapitated and the whole brain is removed rapidly, homogenized in 15 volumes of 0.32 M sucrose solution at […] and then centrifuged at 1000 G for 10 min. The pellet is discarded and the supernatant is centrifuged at 20,000 G at 4° C. for 20 min. The pellet is recovered and homogenized using a Polytron™ mill in 15 volumes of double-distilled water at 4° C., then centrifuged at 8,000 G for 20 min. […]
# On the day of the experiment the tissue is slowly thawed and is suspended in 3 volumes of buffer. […] The reaction is stopped by filtration on Whatman GF/B™ filters pretreated with polyethyleneimine, the filters are rinsed with twice 5 ml of buffer at 4° C. and the radioactivity retained on the filter is measured by liquid scintigraphy. The non-specific binding is determined in the presence of 10 μM (−)-nicotine; the nonspecific binding represents 75% to 85% of the total binding recovered on the filter. […]
# [2] = target: nicotinic receptors containing the α7 subunit (Rattus norvegicus, UniProt Q05941); test: biochemical; assay type: binding
# nicotinic receptors containing the α7 subunit, sequence (Q05941 23-502): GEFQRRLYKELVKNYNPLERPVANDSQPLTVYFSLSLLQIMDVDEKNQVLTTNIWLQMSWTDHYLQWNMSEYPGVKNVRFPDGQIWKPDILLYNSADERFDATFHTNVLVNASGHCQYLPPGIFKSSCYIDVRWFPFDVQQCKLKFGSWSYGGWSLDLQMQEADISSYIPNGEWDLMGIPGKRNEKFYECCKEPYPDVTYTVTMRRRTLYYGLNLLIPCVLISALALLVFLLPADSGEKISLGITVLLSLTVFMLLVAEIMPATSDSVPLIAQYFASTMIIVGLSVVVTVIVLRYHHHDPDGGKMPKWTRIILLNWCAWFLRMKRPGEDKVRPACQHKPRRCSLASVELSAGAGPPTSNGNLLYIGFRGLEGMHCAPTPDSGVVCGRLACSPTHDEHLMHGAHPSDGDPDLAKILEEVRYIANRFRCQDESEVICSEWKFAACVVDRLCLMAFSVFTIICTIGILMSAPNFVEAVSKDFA
SMILES,IC50 [1] [nM],IC50 [2] [nM]
"Cc1ccc2c(C(=O)N3CCN4CCC3C4)n[nH]c2n1 (racemic) [Compound 1, 3-(1,4-Diazabicyclo[3.2.1]oct-4-ylcarbonyl)-6-methyl-1H-pyrazolo[3,4-b]pyridine hydrobromide 2:1]",> 10000,56
"O=C(c1n[nH]c2ccc(F)cc12)N1CCN2CCC1C2 (racemic) [Compound 4, 3-(1,4-Diazabicyclo[3.2.1]oct-4-ylcarbonyl)-5-fluoro-1H-indazole hydrobromide 2:1]",,55
